Test results as given in ChEMBL document CHEMBL3352501, “SAR analysis of new anti-TB drugs currently in pre-clinical and clinical development” (Eur J Med Chem, 2014).
≈ marks a conversion by molar mass, not a printed value.

Columns and labels:
[1] = tested on: Mycobacterium tuberculosis; test: Antitubercular activity against Mycobacterium tuberculosis H37Rv assessed as growth inhibition; type: functional
[2] = tested on: Mycobacterium avium; test: Antimycobacterial activity against Mycobacterium avium assessed as growth inhibition; type: functional
[3] = tested on: Mycolicibacterium smegmatis; test: Antimicrobial activity against Mycobacterium smegmatis assessed as intracellular bacterial killing; type: functional
[4] = tested on: Mycobacterium tuberculosis; test: Antitubercular activity against XDR clinical isolates Mycobacterium tuberculosis […] assessed as growth inhibition in presence of […] clavulanate; type: functional
[5] = tested on: Mycobacterium tuberculosis; test: Antitubercular activity against drug-susceptible Mycobacterium tuberculosis clinical isolates assessed as growth inhibition; type: functional
[6] = Oral bioavailability in dog; type: ADME, organism-based, Canis lupus familiaris; conditions: in vivo
[7] = tested on: Mycobacterium tuberculosis; test: Antitubercular activity against Mycobacterium tuberculosis assessed as growth inhibition; type: functional
[8] = tested on: Mycobacterium tuberculosis; test: Antitubercular activity against Mycobacterium tuberculosis infected in mouse assessed as reduction in colony formation at 20 mg/kg for 20 days; type: functional
[9] = tested on: Mycobacterium tuberculosis; test: Antitubercular activity against Mycobacterium tuberculosis assessed as growth inhibition by alamar blue assay; type: functional
[10] = tested on: Mycobacterium tuberculosis; test: Antitubercular activity against Mycobacterium tuberculosis H37Rv assessed as growth inhibition in presence of […] clavulanate; type: functional
[11] = tested on: Mycobacterium tuberculosis; test: Antitubercular activity against Mycobacterium tuberculosis infected in mouse J774A.1 assessed as reduction in bacterial count; type: functional
[12] = tested on: Mycolicibacterium smegmatis; test: Antimicrobial activity against Mycobacterium smegmatis; type: functional

Compound: CO[C@H]1/C=C/O[C@@]2(C)Oc3c(C)c(O)c4c(c3C2=O)C2=NC3(CCN(CC(C)C)CC3)NC2=C(NC(=O)/C(C)=C\C=C\[C@H](C)[C@H](O)[C@@H](C)[C@@H](O)[C@@H](C)[C@H](OC(C)=O)[C@@H]1C)C4=O [RIFABUTIN]
- MIC [1]: 0.015 µg/mL
- MIC [2]: 0.06 µg/mL (≈ 0.0708 µM)

Compound: CO[C@H]1/C=C/O[C@@]2(C)Oc3c(C)c(O)c4c(O)c(c(/C=N/N5CCN(C)CC5)c(O)c4c3C2=O)NC(=O)/C(C)=C\C=C\[C@H](C)[C@H](O)[C@@H](C)[C@@H](O)[C@@H](C)[C@H](OC(C)=O)[C@@H]1C [RIFAMPIN]
- MIC [3]: < 1 µg/mL

Compound: O=c1nc(N2CCN(CCCCc3ccccc3)CC2)sc2c([N+](=O)[O-])cc(C(F)(F)F)cc12
- MIC [1]: 0.00019 µg/mL

Compound: CCc1nc2ccc(Cl)cn2c1C(=O)NCc1ccc(N2CCC(c3ccc(OC(F)(F)F)cc3)CC2)cc1 [TELACEBEC]
- MIC [1]: 2.7 nM
- MIC90 [4]: < 0.43 nM

Compound: O=c1nc(N2CCN(CCCCOc3ccccc3)CC2)sc2c([N+](=O)[O-])cc(C(F)(F)F)cc12
- MIC [1]: 0.00019 µg/mL

Compound: O=c1nc(N2CCN(CC3CCCCC3)CC2)sc2c([N+](=O)[O-])cc(C(F)(F)F)cc12 [MACOZINONE]
- MIC [1]: 0.00019 µg/mL

Compound: CC(C)=CCC/C(C)=C/CNCCNC1C2CC3CC(C2)CC1C3 (stereo not drawn) [SQ109]
- MIC [5]: 0.2 µg/mL (≈ 0.605 µM)
- bioavailability [6]: 2.4%

Compound: CC(C)/N=c1\cc2n(-c3ccc(Cl)cc3)c3ccccc3nc-2cc1Nc1ccc(Cl)cc1 [CLOFAZIMINE]
- MIC [1]: 1.21 µg/mL
- MIC [7]: 0.12 µg/mL (≈ 0.253 µM)
- log10cfu [8]: 6.33

Compound: COc1c(N2CC3(CC3)[C@](C)(N)C2)c(F)cc2c(=O)c(C(=O)O)cn([C@@H]3C[C@@H]3F)c12
- MIC90 [7]: 0.06 µg/mL (≈ 0.143 µM)

Compound: CCCCCCCN1CCN(c2nc(=O)c3cc(C(F)(F)F)cc([N+](=O)[O-])c3s2)CC1
- MIC [1]: 0.00019 µg/mL

Compound: CC(=O)NC[C@H]1CN(c2ccc(N3CCOCC3)c(F)c2)C(=O)O1 [LINEZOLID]
- MIC [7]: < 1 µg/mL

Compound: C[C@@]1(COc2ccc(N3CCC(Oc4ccc(OC(F)(F)F)cc4)CC3)cc2)Cn2c([N+](=O)[O-])cnc2O1
- MIC [1]: 0.012 µg/mL

Compound: COc1nc2ccc(Br)cc2cc1[C@@H](c1ccccc1)[C@@](O)(CCN(C)C)c1cccc2ccccc12 [BEDAQUILINE]
- MIC [5]: 0.002 µg/mL (≈ 0.0036 µM)
- MBC90 [9]: 2 µg/mL (≈ 3.6 µM)
- WCC90 [9]: 1 µg/mL

Compound: NNC(=O)c1ccncc1 [ISONIAZID]
- MIC [3]: 0.1 µg/mL (≈ 0.729 µM)

Compound: CC1(C)S[C@@H]2[C@H](NC(=O)[C@H](N)c3ccc(O)cc3)C(=O)N2[C@H]1C(=O)O [AMOXICILLIN]
- MIC [10]: 0.32 µg/mL
- fold change (FC) [11]: 1.5
- MIC [4]: 0.23 µg/mL

Compound: O=C([C@@H](O)CO)N1CC=C(c2c(F)cc(N3C[C@H](COc4ccon4)OC3=O)cc2F)CC1 [POSIZOLID]
- MIC [1]: 1 µg/mL

Compound: O=c1nc(N2CCN(CCC3CCCCC3)CC2)sc2c([N+](=O)[O-])cc(C(F)(F)F)cc12
- MIC [1]: 0.00019 µg/mL

Compound: C[C@H]1COC2(CCN(c3nc(=O)c4cc(C(F)(F)F)cc([N+](=O)[O-])c4s3)CC2)O1 [BTZ-043]
- MIC [1]: 0.001 µg/mL
- MIC [12]: 0.004 µg/mL (≈ 0.00927 µM)
- MIC [3]: < 0.01 µg/mL

Compound: O=[N+]([O-])c1cn2c(n1)OC[C@@H](OCc1ccc(OC(F)(F)F)cc1)C2 [PRETOMANID]
- MIC [1]: 0.13 µg/mL

Compound: CC(=O)NC[C@H]1CN(c2ccc(N3CCSCC3)c(F)c2)C(=O)O1 [SUTEZOLID]
- MIC [7]: 0.125 µg/mL (≈ 0.354 µM)

Compound: COc1ncccc1Nc1cc2nc3ccccc3n(-c3ccc(OC(F)(F)F)cc3)c-2c/c1=N\C1CCC(OC)CC1 (stereo not drawn)
- MIC [1]: > 25 µg/mL
- log10cfu [8]: 4.66
